Assay results reported in patent US5876981A, “Transglycosylation reactions employing β-galactosidase” (The Scripps Research Institute, priority 1996, dated 1999).

Experiments:
Assay type in all cases: biochemical, Bacillus circulans
β-galactosidase [1] = experiment: half-life in β-galactosidase-catalyzed hydrolysis (pseudo first order kinetics); conditions: 5 mM compound, enzyme 140 U/mmol, in D2O, NMR integration of released 3 vs remaining 4
Protocol: (§1) The half-lives of compounds 2 and 4 determined from the pseudo first order kinetics of the β-galactosidase-catalyzed hydrolysis were measured as below. 2: A 0.5-mL solution of potassium phosphate buffer (50 mM, pH 7.0) containing 2 (5 mM) and β-galactosidase (140 unit per 1 mmol of 2) was measured continuously in a plastic cell with a 1 cm light path at 420 nm against a control in the absence of the enzyme. 4: A 5-mM solution of 4 and the enzyme (140 U/mmol) in D2 O was poured into an NMR tube, the ratio between the released 3 and remaining 4 was determined periodically by the integration of 6-H of 4 (3.98 ppm) and 6-H of 3 (3.88 ppm).

β-galactosidase [2] = experiment: initial reaction rate of β-galactosidase-catalyzed reaction (released p-nitrophenol, 420 nm); conditions: 0.05M donor, 0.05M potassium phosphate buffer pH 7.0, room temperature
Protocol: FIG. 2 illustrates the comparison of β-galactosidase-catalyzed reaction using galactopyranose (GalβOpNP) and galactohexodialdose (6-oxo-GalβOpNP). (a): The reaction mixture containing 0.05M of donor, and various concentrations of N-acetyl-D-glucosamine in 0.05M potassium phosphate buffer (pH 7.0) was gently stirred at room temperature in the presence of the enzyme (140 U/mmol of donor) for 24 hours; (b) The mixture (containing the same components as described in (a)) was incubated with shaking for 5-10 min at room temperature. Absorbance was measured at 420 nm; (C) Methyl-β-N-acetyl-D-lactosamine (5) was obtained by reduction with NaBH4 followed by product isolation.
In order to determine which step is kinetically controlled, the effect of acceptors on initial reaction rate, (V)0, was investigated (FIG. 2). […] Addition of water soluble organic solvent would reduce water activity to some extent, but it often causes substrate and/or product inhibition and makes the enzyme unstable (Kieboom et al., Recl. Trav. Chim. Pays-Bas 1988, 107, 347-348). To shift the reaction toward transglycosylation in water, it is therefore necessary to kinetically control the partitioning step to favor the transglycosylation.

[3] = half-life in β-galactosidase-catalyzed hydrolysis (pseudo first order kinetics); conditions: potassium phosphate buffer with β-galactosidase; 5 mM compound, enzyme 140 unit per mmol, 50 mM potassium phosphate buffer pH 7.0, absorbance at 420 nm; read-out: T1/2 toward the β-galactosidase-catalyzed hydrolysis (converted)
Protocol: as §1

Row | Compound | T1/2 toward the β-galactosidase-catalyzed hydrolysis (β-galactosidase [1]) | substrate quality for β-galactosidase (β-galactosidase [2]) | half-life at 5000 µM [3]
1 | 6'-oxo-LacNAc [Compound 4] | 1860 min |  | 
2 | O=[N+]([O-])c1ccc(O[C@@H]2O[C@H](C(O)O)[C@H](O)[C@H](O)[C@H]2O)cc1 [Compound 2, p-nitrophenyl glycoside of D-galactohexodialdose] |  | relatively weak substrate | 24 min
